Measurements as given in patent US20030176470A1, “Topical composition containing at least one aryl oxime, and method for the preparation thereof” (priority 2000, published 2003).

Experiments:
[1] = solubility in different solvents; format: physicochemical; conditions: in solvents such as isopropanol, acetone, chloroform, 2-phenylethanol and Triton-X100
Protocol: Numerous studies were conducted in order to obtain optimum compositions of the active agent in which an improvement of solubility and, a prevention of the formation of crystals is achieved. […] Therefore, the carriers must be non-toxic, non-carcinogenic and skin compatible and, furthermore, should be odour neutral. Moreover, these carriers, e.g. solvents or emulsifiers, should be compatible with the major part of the topical composition, i.e. an aqueous phase or an oil phase, and should not form a separate phase or lead to the precipitation of the active agent.

[2] = stability of ethanolic solutions of the active agent; format: physicochemical
Description: During investigations regarding the solubility of, in particular, 2-hydroxy-5-methyl-laurophenone oxime, solutions could be prepared which are stable after 4 days at room temperature under the exclusion of UV light. These solutions were ethanolic solutions of the active agent which included further components such as 0.8/1.0 and 2.0% PEG600 or PEG6000. The active agent was present in these solutions in an amount of 10 wt. %. […] These solutions can be incorporated into water in order to prepare topical formulations.

solubility [1]: good solubility
formation of crystals ([2]; ethanolic PEG solutions, amount of active agent increased above 10 wt. %): formation of crystals was observed
stability of solution ([2]; ethanolic solutions with 0.8/1.0 and 2.0% PEG600 or PEG6000, active agent 10 wt. %, 4 days at room temperature under exclusion of UV light): stable
formation of crystals ([2]; solution of the active agent incorporated into water at 10 to 20 wt. % of the formulation): in some cases the formation of crystals
Substance: 2-hydroxy-5-methyl-laurophenone oxime
